Measurements: patent US6380181B1, “Synthetic catechol derivatives, method for production and use thereof” (priority 1996, dated 2002)
Converted amounts (≈) assume the structure as drawn.

Experiments:
Assay type in all cases: cell-based
E. coli DC0 = test: Microdilution test (MIC); conditions: E. coli DC0
Protocol: (§1) The minimum inhibiting concentrations (MICs) were determined for the following bacterial strains: Pseudomonas aeruginosa NCTC 10701, NCTC 10662, SG 137, ATCC 27853, KW 799 WT and KW 799/61, E. coli DCO, DC2 and ATCC 25922, Serratia marcescens SG 621; Salmonella gallinarum ATCC 9184, Klebsiella pneumoniae ATCC 10031 and SG 117.
(§2) With the test germs KW 799/WT and /61 of Pseudomonas and DCO and DC2 of E. coli, the effect of improved penetration capacity on the efficacy of the substances was investigated.

[1] = test system: Pseudomonas aeruginosa KW 799 WT; test: Microdilution test (MIC); conditions: P. aeruginosa KW 799/WT
Protocol: as §1, §2

[2] = test system: Pseudomonas aeruginosa KW 799/61; test: Microdilution test (MIC)
Protocol: as §1, §2

[3] = test system: Pseudomonas aeruginosa ATCC 27853 (wild type); test: Agar diffusion test; conditions: concentration 100 μg/ml; P. aeruginosa ATCC 27853
E. coli mutant KB4 ompF− = test system: E. coli mutant KB4 ompF−
Excerpt: (§3) The efficacy against β-lactamase formers and against multi-resistant germs is therefore due to a new type of mechanism for overcoming the penetration resistance, by means of which the ratio of active ingredient to enzyme in the bacterial cell is influenced so that not all antibiotic molecules are inactivated before they reach their target.

E. coli mutant KB5 ompC− = test system: E. coli mutant KB5 ompC−
Excerpt: as §3

[4] = test system: Stenotrophomonas maltophilia IMET 10402; test: Agar diffusion test; conditions: concentration 100 μg/ml
[5] = test system: E. coli DC2 (penetration mutant); conditions: concentration 100 μg/ml
[6] = test system: Pseudomonas aeruginosa ATCC 9027 (wild type); test: Agar diffusion test; conditions: concentration 100 μg/ml; P. aeruginosa ATCC 9027
[7] = test system: Pseudomonas aeruginosa KW 799/61 (penetration mutant); conditions: concentration 100 μg/ml; P. aeruginosa KW799/61
[8] = test system: Stenotrophomonas maltophilia GN 12873; test: Microdilution test (MIC)
[9] = test system: Pseudomonas aeruginosa NCTC 10662; test: Agar diffusion test; conditions: concentration 100 μg/ml; P. aeruginosa NCTC 10662
E. coli ATCC 25922 = test: Microdilution test (MIC)
Protocol: as §1

[10] = test system: Pseudomonas aeruginosa NCTC 10662; test: Microdilution test (MIC); conditions: P. aeruginosa NCTC 10662
Protocol: as §1

[11] = test system: Pseudomonas aeruginosa ATCC 27853; test: Microdilution test (MIC); conditions: Pseudomonas aeruginosa, ATCC27853; P. aeruginosa ATCC 27853
Protocol: as §1

[12] = test system: Klebsiella pneumoniae ATCC 10031; test: Microdilution test (MIC)
Protocol: as §1

[13] = test system: Pseudomonas aeruginosa SG 137; test: Microdilution test (MIC); conditions: P. aeruginosa SG 137
Protocol: as §1

[14] = test system: Serratia marcescens SG 621; test: Microdilution test (MIC)
Protocol: as §1

[15] = test system: Pseudomonas aeruginosa NCTC 10701; test: Microdilution test (MIC); conditions: Pseudomonas aeruginosa, NCTC10701; P. aeruginosa NCTC 10701
Protocol: as §1

[16] = test system: Salmonella gallinarum ATCC 9184; test: microbe, parasite or virus in culture; conditions: Salmonella enterica; Salmonella gallinarum ATCC9184; read-out: MIC values, microdilution test
Protocol: as §1

[17] = test system: Pseudomonas aeruginosa NPS1 (plasmid-coded β-lactamase); conditions: concentration 100 μg/ml; P. aeruginosa NPS 1
[18] = test system: Pseudomonas aeruginosa SG 137 (carbenicillin-resistant); test: Agar diffusion test; conditions: concentration 100 μg/ml; P. aeruginosa SG 137
[19] = test system: Stenotrophomonas maltophilia GN 12873; test: Agar diffusion test; conditions: concentration 100 μg/ml
[20] = test system: Klebsiella pneumoniae SG 117; test: Agar diffusion test; conditions: concentration 100 μg/ml
E. coli DC2 = test: microbe, parasite or virus in culture
Protocol: as §1, §2

[21] = test system: Salmonella gallinarum ATCC 9184; conditions: concentration 100 μg/ml; Salmonella galinarum ATCC 9184
[22] = test system: Pseudomonas aeruginosa NCTC 10701; test: Agar diffusion test; conditions: concentration 100 μg/ml; P. aeruginosa NCTC 10701
[23] = test system: E. coli mutant PLB3268 ompF++; conditions: E. coli mutant PLB3268 ompF++ (ompF super-expressed)
Excerpt: as §3
PLB268: ompF- was super-expressed.

[24] = test system: Pseudomonas aeruginosa Oxa6 (plasmid-coded β-lactamase); conditions: concentration 100 μg/ml; P. aeruginosa OXA 6
E. coli DC0 (wild type) = test: Agar diffusion test; conditions: concentration 100 μg/ml
[25] = test system: Pseudomonas aeruginosa KW 799 WT (wild type); test: Agar diffusion test; conditions: concentration 100 μg/ml; P. aeruginosa KW799/WT
[26] = test system: Salmonella typhimurium enb-7
Excerpt: (§4) In the indicator mutants, the synthesis of the respective siderophores, e.g. pyoverdin, pyochelin, enterobactin, aerobactin or yersiniabactin, or the biosynthesis of aromatic compounds, is blocked, or there is a lack of receptors for enterobactin, pyochelin or pyoverdin and for other important components for the bacterial transport of iron (e.g. the membrane proteins Cir, Fiu, FepA and TonB). Under conditions where there is a lack of iron, these mutants therefore cannot grow or can only grow to a very slight extent. In particular, the following indicator mutants were used: Pseudomonas aeruginosa PAO 6609, K 407, 690; E. coli AB 2847, Salmonella typhimurium enb-7, TA 270; Klebsiella pneumoniae KN 4401; Yersinia enterocolitica WAH; Proteus mirabilis 12 (wild); Proteus vulgaris 718 (wild) and Morganella morganii SBK3 (wild). […] The controls used were ferrioxamine E for the Pseudomonas strains, ferrioxamine G and enterobactin for the Salmonella strains, ferrichrome for the E. coli, Klebsiella and Y. enterocol. strains, and 3,4-dihydroxybenzylidene-2,4,6-trimethylaniline for Morganella morganii (see the above literature reference by R. Reissbrodt et al.).
(§5) The annotations + and (+) relate to non-specific promotion of growth.

[27] = test system: Pseudomonas aeruginosa PAO 6609
Excerpt: as §4, §5

[28] = test system: Proteus vulgaris 718 (wild)
Excerpt: as §4, §5

[29] = test system: Morganella morganii SBK3 (wild)
Excerpt: as §4, §5

[30] = test system: Pseudomonas aeruginosa 690
Excerpt: as §4, §5

[31] = test system: Klebsiella pneumoniae KN 4401; conditions: Klebsiella KN 4401
Excerpt: as §4, §5

[32] = test system: Yersinia enterocolitica WAH; conditions: Y. enterocol. WAH
Excerpt: as §4, §5

[33] = test system: Salmonella typhimurium TA 2700
Excerpt: as §4, §5

[34] = test system: Proteus mirabilis 12 (wild)
Excerpt: as §4, §5

[35] = test system: Pseudomonas aeruginosa K 407; conditions: Pseudomonas aeruginosa K407
Excerpt: as §4, §5

E. coli AB2847 tonB+ = test system: E. coli AB2847 tonB+
[36] = test system: E. coli mutant BR185 tonB−
[37] = Escherichia coli, read-out: MIC values, microdilution test

SMILES: CC1(C)S[C@@H]2[C@H](NC(=O)[C@H](N)c3ccccc3)C(=O)N2[C@H]1C(=O)O [Ampicillin, reference compound]
- MIC (E. coli DC0; [37]): 6.25 µg/mL (≈ 17.9 µM)
- MIC ([1]; Pseudomonas aeruginosa, KW799WT): > 100 µg/mL
- MIC ([2]; Pseudomonas aeruginosa, KW799/61, P. aeruginosa KW 799/61): 0.4 µg/mL (≈ 1.14 µM)
- inhibition spot diameter in the agar diffusion test [3]: 0 mm
- inhibition spot diameter in agar diffusion test (E. coli mutant KB4 ompF−): 10 mm
- inhibition spot diameter in agar diffusion test (E. coli mutant KB5 ompC−): 9.5 mm
- inhibition spot diameter in the agar diffusion test [4]: 0 mm
- inhibition spot diameter in the agar diffusion test [5]: 32 mm
- inhibition spot diameter in the agar diffusion test [6]: 0 mm
- inhibition spot diameter in the agar diffusion test [7]: 41 mm
- MIC ([8]; GN12873): > 100 µg/mL
- inhibition spot diameter in the agar diffusion test [9]: 0 mm
- MIC (E. coli ATCC 25922; Escherichia coli, ATCC25922): 6.25 µg/mL (≈ 17.9 µM)
- MIC ([10]; Pseudomonas aeruginosa, NCTC10662): > 100 µg/mL
- MIC [11]: > 100 µg/mL
- MIC ([12]; ATCC10031): 50 µg/mL (≈ 143 µM)
- MIC ([13]; Pseudomonas aeruginosa, SG137): > 100 µg/mL
- MIC ([14]; SG621): 25 µg/mL (≈ 71.5 µM)
- MIC [15]: > 100 µg/mL
- MIC [16]: 0.2 µg/mL (≈ 0.572 µM)
- inhibition spot diameter in the agar diffusion test [17]: 0 mm
- inhibition spot diameter in the agar diffusion test [18]: 0 mm
- inhibition spot diameter in the agar diffusion test [19]: 0 mm
- inhibition spot diameter in the agar diffusion test [20]: 19 mm
- MIC (E. coli DC2; [37]): 1.56 µg/mL (≈ 4.46 µM)
- inhibition spot diameter in the agar diffusion test [21]: 34 mm
- inhibition spot diameter in the agar diffusion test [22]: 0 mm
- inhibition spot diameter in agar diffusion test [23]: 17.5 mm
- inhibition spot diameter in the agar diffusion test [24]: 0 mm
- inhibition spot diameter in the agar diffusion test (E. coli DC0 (wild type)): 22 mm
- inhibition spot diameter in the agar diffusion test [25]: 0 mm

SMILES: O=C(O)c1cc(O)c(O)c(C=NNC(=O)c2cccc(O)c2O)c1 [Substance 13, 3-formyl-4,5-dihydroxybenzoic Acid-(2,3-dihydroxy-benzhydrazone)]
- Growth areas of siderophore indicator strains (diameter) [26]: 18 mm
- Growth areas of siderophore indicator strains (diameter) [27]: 10 mm
- Growth areas of siderophore indicator strains (diameter) [28]: 23 mm
- Growth areas of siderophore indicator strains (diameter) [29]: 24 mm
- Growth areas of siderophore indicator strains (diameter) [30]: 10 mm
- Growth areas of siderophore indicator strains (diameter) [31]: 15 mm
- Growth areas of siderophore indicator strains (diameter) [32]: 10 mm
- Growth areas of siderophore indicator strains (diameter) [33]: 23 mm
- Growth areas of siderophore indicator strains (diameter) [34]: 23 mm
- Growth areas of siderophore indicator strains (diameter) [35]: 11 mm

SMILES: CC(=O)Oc1cccc(C(=O)Nc2ccc(C(=O)N[C@@H](C(=O)N[C@@H]3C(=O)N4[C@@H]3SC(C)(C)[C@@H]4C(=O)O)c3ccccc3)cc2)c1OC(C)=O [Substance 29]
- MIC values, microdilution test (E. coli DC0): 50 µg/mL (≈ 72.6 µM)
- MIC values, microdilution test [1]: 3.12 µg/mL (≈ 4.53 µM)
- MIC values, microdilution test [2]: 0.4 µg/mL (≈ 0.581 µM)
- inhibition spot diameter in agar diffusion test (E. coli mutant KB4 ompF−): 9.5 mm
- inhibition spot diameter in agar diffusion test (E. coli mutant KB5 ompC−): 7 mm
- inhibition spot diameter in the agar diffusion test [4]: 23 mm
- inhibition spot diameter in the agar diffusion test [5]: 28 mm
- inhibition spot diameter in the agar diffusion test [6]: 21 mm
- inhibition spot diameter in agar diffusion test (E. coli AB2847 tonB+): 6 mm
- inhibition spot diameter in the agar diffusion test [7]: 33 mm
- MIC values, microdilution test [8]: 12.5 µg/mL (≈ 18.1 µM)
- MIC values, microdilution test (E. coli ATCC 25922): 100 µg/mL (≈ 145 µM)
- MIC values, microdilution test [10]: 12.5 µg/mL (≈ 18.1 µM)
- MIC values, microdilution test [12]: 50 µg/mL (≈ 72.6 µM)
- MIC values, microdilution test [13]: 0.78 µg/mL (≈ 1.13 µM)
- MIC values, microdilution test [14]: 25 µg/mL (≈ 36.3 µM)
- inhibition spot diameter in the agar diffusion test [17]: 12 mm
- inhibition spot diameter in the agar diffusion test [18]: 28 mm
- inhibition spot diameter in the agar diffusion test [19]: 19 mm
- inhibition spot diameter in the agar diffusion test [20]: 15 mm
- MIC values, microdilution test (E. coli DC2): 1.56 µg/mL (≈ 2.27 µM)
- inhibition spot diameter in agar diffusion test [36]: 0 mm
- inhibition spot diameter in the agar diffusion test [21]: 22 mm
- inhibition spot diameter in the agar diffusion test [22]: 23 mm
- inhibition spot diameter in agar diffusion test [23]: 14 mm
- inhibition spot diameter in the agar diffusion test [24]: 13 mm
- inhibition spot diameter in the agar diffusion test (E. coli DC0 (wild type)): 22 mm
- inhibition spot diameter in the agar diffusion test [25]: 27 mm
